What was measured:
Type in all cases: functional
SNB-75 = assay: Growth inhibition of human SNB75 cells assessed as cell growth at 10^-8 M incubated for 48 hrs by sulforhodamine B assay relative to control; conditions: SNB-75, 48 h, read-out: Activity
MDA-MB-435 = assay: Growth inhibition of human MDA-MB-435 cells assessed as cell growth at 10^-8 M incubated for 48 hrs by sulforhodamine B assay relative to control; conditions: MDA-MB-435, 48 h, read-out: Activity
HCT-116 = assay: Growth inhibition of human HCT116 cells assessed as cell growth at 10^-8 M incubated for 48 hrs by sulforhodamine B assay relative to control; conditions: HCT-116, 48 h, read-out: Activity
EKVX = assay: Growth inhibition of human EKVX cells assessed as cell growth at 10^-7 M incubated for 48 hrs by sulforhodamine B assay relative to control; conditions: read-out: Activity
RXF 393 = assay: Growth inhibition of human RXF393 cells assessed as cell growth at 10^-8 M incubated for 48 hrs by sulforhodamine B assay relative to control; conditions: RXF 393, 48 h, read-out: Activity
K562 [1] = assay: Growth inhibition of human K562 cells assessed as cell growth at 10^-5 M incubated for 48 hrs by sulforhodamine B assay relative to control; conditions: K562, 48 h, read-out: Activity
HCC 2998 = assay: Cytotoxicity against human HCC2998 cells after 48 hrs by SRB assay; conditions: HCC 2998, 48 h; for GI50: read-out: GI50; for TGI: read-out: TGI
ACHN [2] = assay: Growth inhibition of human ACHN cells assessed as cell growth at 10^-4 M incubated for 48 hrs by sulforhodamine B assay relative to control; conditions: read-out: Activity
HCT-15 [3] = assay: Growth inhibition of human HCT15 cells assessed as cell growth at 10^-8 M incubated for 48 hrs by sulforhodamine B assay relative to control; conditions: HCT-15, 48 h, read-out: Activity
ACHN [4] = assay: Cytotoxicity against human ACHN cells after 48 hrs by SRB assay; conditions: for CC50: read-out: pLC50 (the source's name) (converted)
OVCAR-3 = assay: Cytotoxicity against human OVCAR3 cells after 48 hrs by SRB assay; conditions: OVCAR-3, 48 h; for GI50: read-out: GI50; for CC50: read-out: LC50 (the source's name)
HOP-62 [5] = assay: Growth inhibition of human HOP62 cells assessed as cell growth at 10^-6 M incubated for 48 hrs by sulforhodamine B assay relative to control; conditions: HOP-62, 48 h, read-out: Activity
HCT-15 [6] = assay: Growth inhibition of human HCT15 cells assessed as cell growth at 10^-5 M incubated for 48 hrs by sulforhodamine B assay relative to control; conditions: HCT-15, 48 h, read-out: Activity
SK-OV-3 = assay: Cytotoxicity against human SKOV3 cells after 48 hrs by SRB assay; conditions: SK-OV-3, 48 h; for GI50: read-out: GI50; for CC50: read-out: LC50 (the source's name)
HCT-15 [7] = assay: Growth inhibition of human HCT15 cells assessed as cell growth at 10^-6 M incubated for 48 hrs by sulforhodamine B assay relative to control; conditions: HCT-15, 48 h, read-out: Activity
DU-145 = assay: Growth inhibition of human DU145 cells assessed as cell growth at 10^-4 M incubated for 48 hrs by sulforhodamine B assay relative to control; conditions: DU-145, 48 h, read-out: Activity
NCI/ADR-RES = assay: Growth inhibition of human NCI/ADR-RES cells assessed as cell growth at 10^-8 M incubated for 48 hrs by sulforhodamine B assay relative to control; conditions: read-out: Activity
OVCAR-4 [8] = assay: Growth inhibition of human OVCAR4 cells assessed as cell growth at 10^-4 M incubated for 48 hrs by sulforhodamine B assay relative to control; conditions: OVCAR-4, 48 h, read-out: Activity
Hs-578T = assay: Growth inhibition of human Hs 578T cells assessed as cell growth at 10^-5 M incubated for 48 hrs by sulforhodamine B assay relative to control; conditions: read-out: Activity
OVCAR-8 = assay: Growth inhibition of human OVCAR8 cells assessed as cell growth at 10^-6 M incubated for 48 hrs by sulforhodamine B assay relative to control; conditions: OVCAR-8, 48 h, read-out: Activity
SF-295 = assay: Growth inhibition of human SF295 cells assessed as cell growth at 10^-7 M incubated for 48 hrs by sulforhodamine B assay relative to control; conditions: SF-295, 48 h, read-out: Activity
K562 [9] = assay: Growth inhibition of human K562 cells assessed as cell growth at 10^-8 M incubated for 48 hrs by sulforhodamine B assay relative to control; conditions: K562, 48 h, read-out: Activity
NCI-H226 = assay: Growth inhibition of human NCI-H226 cells assessed as cell growth at 10^-7 M incubated for 48 hrs by sulforhodamine B assay relative to control; conditions: NCI-H226, 48 h, read-out: Activity
NCI-H460 = assay: Growth inhibition of human NCI-H460 cells assessed as cell growth at 10^-7 M incubated for 48 hrs by sulforhodamine B assay relative to control; conditions: NCI-H460, 48 h, read-out: Activity
OVCAR-4 [10] = assay: Growth inhibition of human OVCAR4 cells assessed as cell growth at 10^-8 M incubated for 48 hrs by sulforhodamine B assay relative to control; conditions: OVCAR-4, 48 h, read-out: Activity
CCRF-CEM = assay: Growth inhibition of human CCRF-CEM cells assessed as cell growth at 10^-4 M incubated for 48 hrs by sulforhodamine B assay relative to control; conditions: read-out: Activity
U-251 [11] = assay: Cytotoxicity against human U251 cells after 48 hrs by SRB assay; conditions: U-251, 48 h; for GI50: read-out: GI50
HOP-62 [12] = assay: Growth inhibition of human HOP62 cells assessed as cell growth at 10^-8 M incubated for 48 hrs by sulforhodamine B assay relative to control; conditions: HOP-62, 48 h, read-out: Activity
UO-31 = assay: Growth inhibition of human UO31 cells assessed as cell growth at 10^-6 M incubated for 48 hrs by sulforhodamine B assay relative to control; conditions: UO-31, 48 h, read-out: Activity
RPMI-8226 = assay: Growth inhibition of human RPMI8226 cells assessed as cell growth at 10^-6 M incubated for 48 hrs by sulforhodamine B assay relative to control; conditions: RPMI-8226, 48 h, read-out: Activity
HOP-92 = assay: Growth inhibition of human HOP92 cells assessed as cell growth at 10^-6 M incubated for 48 hrs by sulforhodamine B assay relative to control; conditions: HOP-92, 48 h, read-out: Activity
A549 = assay: Growth inhibition of human A549/ATCC cells assessed as cell growth at 10^-6 M incubated for 48 hrs by sulforhodamine B assay relative to control; conditions: A549, 48 h, read-out: Activity
U-251 [13] = assay: Growth inhibition of human U251 cells assessed as cell growth at 10^-6 M incubated for 48 hrs by sulforhodamine B assay relative to control; conditions: U-251, 48 h, read-out: Activity
[14] = read-out: pLC50 (the source's name) (converted)
[15] = read-out: LC50 (the source's name)

For `C#C[C@@]1(O)[C@@H](CO)O[C@@H](n2cc(Br)c3c(N)ncnc32)[C@@H]1O`, the growth at 0.01 µM (SNB-75) was 73 to 89%, the growth at 0.01 µM (MDA-MB-435) was 89 to 92% and the growth at 0.01 µM (HCT-116) was 83%. It also gave a growth at 0.1 µM (EKVX) of 60 to 74%, a growth at 0.01 µM (RXF 393) of 99% and a growth at 10 µM (K562 [1]) of 6 to 7%. It also gave a GI50 (HCC 2998) of 169 to 240 nM, a TGI (HCC 2998) of 525 to 1250 nM and a CC50 (HCC 2998; [14]) of over 100000 nM. For the same compound, the growth at 100 µM (ACHN [2]) was 7%, the growth at 0.01 µM (HCT-15 [3]) was 80 to 84% and the GI50 (ACHN [4]) was 234 nM. For the same compound, the CC50 (ACHN [4]) was over 100000 nM, the GI50 (OVCAR-3) was 184 to 252 nM and the CC50 (OVCAR-3) was over 100000 nM. The TGI (OVCAR-3; read-out: TGI) was 3010 to 4710 nM, the growth at 1 µM (HOP-62 [5]) was 12 to 29% and the growth at 10 µM (HCT-15 [6]) was 3%. For the same compound, the GI50 (SK-OV-3) was 44.1 to 153 nM, the CC50 (SK-OV-3) was over 100000 nM and the TGI (SK-OV-3; read-out: TGI) was 439 nM. It also gave a TGI (SK-OV-3; read-out: pTGI (converted)) of 437 nM, a growth at 1 µM (HCT-15 [7]) of 4 to 7% and a growth at 100 µM (DU-145) of 8 to 10%. The growth at 0.01 µM (NCI/ADR-RES) was 80 to 90%, the growth at 100 µM (OVCAR-4 [8]) was 3 to 15% and the growth at 10 µM (Hs-578T) was 3 to 9%. It also gave a growth at 1 µM (OVCAR-8) of 1 to 4%, a growth at 0.1 µM (SF-295) of 60 to 78% and a growth at 0.01 µM (K562 [9]) of 87 to 99%. The growth at 0.1 µM (NCI-H226) was 81 to 98%, the growth at 0.1 µM (NCI-H460) was 9 to 27% and the growth at 0.01 µM (OVCAR-4 [10]) was 96 to 100%. It also gave a growth at 100 µM (CCRF-CEM) of 3 to 4%, a GI50 (U-251 [11]) of 13.2 to 30.9 nM and a CC50 (U-251 [11]; [15]) of over 100000 nM. It also gave a growth at 0.01 µM (HOP-62 [12]) of 92 to 100%.
Work on `C#C[C@@]1(O)[C@@H](CO)O[C@@H](n2cc(I)c3c(N)ncnc32)[C@@H]1O` yielded a growth at 0.01 µM (SNB-75) of 74 to 83%, a growth at 1 µM (UO-31) of 20 to 28% and a growth at 0.01 µM (MDA-MB-435) of 83 to 93%. The growth at 0.01 µM (HCT-116) was 83 to 95%, the growth at 0.1 µM (EKVX) was 69 to 75% and the growth at 0.01 µM (RXF 393) was 94 to 102%. The growth at 10 µM (K562 [1]) was 7%, the GI50 (HCC 2998) was 221 to 267 nM and the CC50 (HCC 2998; [15]) was over 100000 nM. It also gave a TGI (HCC 2998) of 2600 to 3470 nM, a growth at 100 µM (ACHN [2]) of 1% and a growth at 1 µM (RPMI-8226) of 23 to 27%. It also gave a growth at 0.01 µM (HCT-15 [3]) of 74 to 84%, a growth at 1 µM (HOP-92) of 10% and a GI50 (ACHN [4]) of 316 nM. It also gave a TGI (ACHN [4]; read-out: TGI) of over 100000 nM, a CC50 (ACHN [4]) of over 100000 nM and a TGI (ACHN [4]; read-out: pTGI (converted)) of over 100000 nM. For the same compound, the GI50 (OVCAR-3) was 321 to 427 nM, the CC50 (OVCAR-3) was over 100000 nM and the growth at 1 µM (HOP-62 [5]) was 33 to 61%. For the same compound, the growth at 10 µM (HCT-15 [6]) was 2 to 3%, the GI50 (SK-OV-3) was 19.4 to 60.4 nM and the CC50 (SK-OV-3) was over 100000 nM. It also gave a TGI (SK-OV-3; read-out: TGI) of 469 to 1130 nM, a growth at 1 µM (HCT-15 [7]) of 11 to 20% and a growth at 100 µM (DU-145) of 7 to 10%. For the same compound, the growth at 0.01 µM (NCI/ADR-RES) was 86 to 88%, the growth at 1 µM (A549) was 29 to 41% and the growth at 1 µM (U-251 [13]) was 6 to 9%. The growth at 100 µM (OVCAR-4 [8]) was 9 to 14%, the growth at 1 µM (OVCAR-8) was 3 to 5% and the growth at 0.1 µM (SF-295) was 63 to 76%. It also gave a growth at 0.01 µM (K562 [9]) of 95 to 102%, a growth at 0.1 µM (NCI-H226) of 75 to 95% and a growth at 0.1 µM (NCI-H460) of 37 to 56%. For the same compound, the growth at 0.01 µM (OVCAR-4 [10]) was 90 to 104%, the growth at 100 µM (CCRF-CEM) was 2 to 8% and the GI50 (U-251 [11]) was 67.3 to 80.2 nM. For the same compound, the TGI (U-251 [11]; read-out: TGI) was 10200 to 100000 nM, the CC50 (U-251 [11]; [14]) was over 100000 nM and the growth at 0.01 µM (HOP-62 [12]) was 83 to 89%.

Reference: ChEMBL document CHEMBL4270599, “Synthesis of a 3'-C-ethynyl-β-d-ribofuranose purine nucleoside library: Discovery of C7-deazapurine analogs as potent antiproliferative nucleosides” (Eur J Med Chem, 2018)
